This is an account of results in US8173684B2, “Pyridone derivatives as p38α MAPK inhibitors” (Astellas Pharma Inc., priority 2007, dated 2012).

For this assay, the system named is TNF-α production in THP-1 cells. The assay is described as follows: Test 1: Inhibition of TNF-α production in THP-1 cells. It counts as cell-based. The following applies: Homo sapiens; 100 nM test compound; LPS (10 μg/mL) stimulated THP-1 cells, 20 hr; TNF-α in supernatant vs 0.1% DMSO control. As for the experimental part: Test 1: Inhibition of TNF-α Production in THP-1 Cells
THP-1 cells, a human monocytic cell line, were maintained in RPMI 1640 (Sigma R8758) supplemented with penicillin (50 U/mL), streptomycin (50 μg/mL) and 10% fetal bovine serum (Moregate BioTech.) at 37° C., 5% CO2 in a humidified incubator. Initial stock solutions of test compounds were made in DMSO. All cells, reagents and test compounds were diluted into culture media. THP-1 cells (1×10^5 cells/well final) and lipopolysaccharide (LPS; 10 μg/mL final; Sigma L-4005, from E. coli serotype 0.55:B5) were added to 96 well polypropylene culture plates (Sumilon, MS-8196F5; sterile) containing test compound or 0.1% DMSO vehicle. The cell mixture was incubated for 20 hr in a humidified incubator at 37° C., 5% CO2. The culture supernatants were harvested and TNF-α levels from LPS stimulated cells in the presence of 100 nM test compound was calculated compared with control cells stimulated in the presence of 0.1% DMSO.

The compound `O=C(Nc1cc(C(=O)NC2CC2)ccc1Cl)c1ccc(=O)n(-c2c(Cl)cccc2Cl)c1` [Example 1, N-{2-chloro-5-[(cyclopropylamino)carbonyl]phenyl}-1-(2,6-dichlorophenyl)-6-oxo-1,6-dihydro-3-pyridinecarboxamide] yielded an inhibition at 0.1 µM of 77%.
For `CONC(=O)c1ccc(Cl)c(NC(=O)c2ccc(=O)n(-c3c(Cl)cccc3Cl)c2)c1` [Example 2, N-{2-Chloro-5-[(methoxyamino)carbonyl]phenyl}-1-(2,6-dichlorophenyl)-6-oxo-1,6-dihydro-3-pyridinecarboxamide] the value was 84%.
The figure for `O=C(Nc1ccon1)c1ccc(Cl)c(NC(=O)c2ccc(=O)n(-c3c(Cl)cccc3Cl)c2)c1` [Example 3, N-{2-Chloro-5-[(isoxazol-3-ylamino)carbonyl]phenyl}-1-(2,6-dichlorophenyl)-6-oxo-1,6-dihydro-3-pyridinecarboxamide] is 94%; for `Cn1ccc(NC(=O)c2ccc(Cl)c(NC(=O)c3ccc(=O)n(-c4c(Cl)cccc4Cl)c3)c2)n1` [Example 5, N-{2-Chloro-5-[(1-methyl-1H-pyrazol-3-ylamino)carbonyl]phenyl}-1-(2,6-dichlorophenyl)-6-oxo-1,6-dihydro-3-pyridinecarboxamide] it is 75%; for `Cn1nccc1NC(=O)c1ccc(Cl)c(NC(=O)c2ccc(=O)n(-c3c(Cl)cccc3Cl)c2)c1` [Example 6, N-{2-Chloro-5-[(1-methyl-1H-pyrazol-5-ylamino)carbonyl]phenyl}-1-(2,6-dichlorophenyl)-6-oxo-1,6-dihydro-3-pyridinecarboxamide] it is 82%.
The figure for `O=C(Nc1cc(C(=O)NC2CC2)ccc1Br)c1ccc(=O)n(-c2c(F)cccc2F)c1` [Example 15, N-{2-Bromo-5-[(cyclopropylamino)carbonyl]phenyl}-1-(2,6-difluorophenyl)-6-oxo-1,6-dihydro-3-pyridinecarboxamide] is 69%; for `O=C(Nc1cc(C(=O)NC2CC2)ccc1Cl)c1ccc(=O)n(-c2c(F)cccc2Cl)c1` [Example 16, N-{2-Chloro-5-[(cyclopropylamino)carbonyl]phenyl}-1-(2-chloro-6-fluorophenyl)-6-oxo-1,6-dihydro-3-pyridinecarboxamide] it is 72%.
In turn, `O=C(Nc1cc(C(=O)NC2CC2)ccc1Cl)c1ccc(=O)n(-c2cccc(F)c2F)c1` [Example 17, N-{2-Chloro-5-[(cyclopropylamino)carbonyl]phenyl}-1-(2,3-difluorophenyl)-6-oxo-1,6-dihydro-3-pyridinecarboxamide] came in with an inhibition at 0.1 µM of 75%.
For `Cc1ccc(C(=O)NC2CC2)cc1NC(=O)c1ccc(=O)n(-c2c(Cl)cccc2Cl)c1` [Example 18, N-{5-[(cyclopropylamino)carbonyl]-2-methylphenyl}-1-(2,6-dichlorophenyl)-6-oxo-1,6-dihydro-3-pyridinecarboxamide] the value was 78%.
For `Cc1ccc(C(=O)NC2CC2)cc1NC(=O)c1ccc(=O)n(C(C)(C)C)c1` [Example 20, N-{5-[(cyclopropylamino)carbonyl]-2-methylphenyl}-1-tert-butyl-6-oxo-1,6-dihydro-3-pyridinecarboxamide] the value was 85%.
For `Cc1ccc(C(=O)NC2CC2)cc1NC(=O)c1ccc(=O)n(-c2c(F)cccc2F)c1` [Example 22, N-{5-[(Cyclopropylamino)carbonyl]-2-methylphenyl}-1-(2,6-difluorophenyl)-6-oxo-1,6-dihydro-3-pyridinecarboxamide] the value was 97%; for `Cc1ccc(C(=O)NC2CC2)cc1NC(=O)c1ccc(=O)n(C(C)c2ccccc2)c1` (centres unmarked) [Example 24, N-{5-[(Cyclopropylamino)carbonyl]-2-methylphenyl}-1-(1-phenylethyl)-6-oxo-1,6-dihydro-3-pyridinecarboxamide], 83%; for `Cc1ccc(NC(=O)C2CC2)cc1NC(=O)c1ccc(=O)n(-c2c(Cl)cccc2Cl)c1` [Example 25, N-{5-[(cyclopropylcarbonyl)amino]-2-methylphenyl}-1-(2,6-dichlorophenyl)-6-oxo-1,6-dihydro-3-pyridinecarboxamide], 70%.
In the case of `Cc1ccc(-n2nc(C(C)(C)C)cc2NC(=O)Nc2ccc(C)c(NC(=O)c3ccc(=O)n(-c4c(Cl)cccc4Cl)c3)c2)cc1` [Example 26, N-[5-[({[3-tert-butyl-1-(4-methylphenyl)-1H-pyrazol-5-yl]amino]carbonyl)amino]-2-methylphenyl}-1-(2,6-dichlorophenyl)-6-oxo-1,6-dihydro-3-pyridinecarboxamide], at 0.1 µM the inhibition was 68%.

One may read the inhibition as the relative decrease from the control value, in per cent.
